According to patent US20090022757A1, “Method for treating photoreceptor cell degeneration” (priority 2007, published 2009):

Test system: rat retinal photoreceptor
Test: Electroretinogram of rats treated with different MNU dosages
Conditions: for Number of Eyes with extinguished electroretinogram: n = 10

## CN(N=O)C(N)=O [MNU, N-methyl-N-nitrosourea]
  initial dosage that could cause maximum decrease of a-wave and b-wave amplitudes of electroretinogram: 40 mg/kg
  lowest dosage which could shorten the a-wave and b-wave latent period of rats electroretinogram to the greatest extent: 40 mg/kg
MNU 30 mg/kg, 12 h
  a-wave amplitude of electroretinogram: 42.24 ± 7.71
  a-wave latent period of electroretinogram: 17.97 ± 2.50
  b-wave amplitude of electroretinogram: 195.8 ± 33.45
  b-wave latent period of electroretinogram: 73.7 ± 6.94
  Number of Eyes with extinguished electroretinogram: 0
MNU 30 mg/kg, 1 d
  a-wave amplitude of electroretinogram: 34.10 ± 6.35
  a-wave latent period of electroretinogram: 17.82 ± 2.59
  b-wave amplitude of electroretinogram: 153.6 ± 28.76
  b-wave latent period of electroretinogram: 70.41 ± 6.11
  Number of Eyes with extinguished electroretinogram: 0
MNU 30 mg/kg, 3 d
  a-wave amplitude of electroretinogram: 33.14 ± 9.15
  a-wave latent period of electroretinogram: 17.44 ± 2.40
  b-wave amplitude of electroretinogram: 132.0 ± 24.85
  b-wave latent period of electroretinogram: 67.42 ± 7.05
  Number of Eyes with extinguished electroretinogram: 0
MNU 30 mg/kg, 7 d
  a-wave amplitude of electroretinogram: 41.11 ± 10.14
  a-wave latent period of electroretinogram: 17.66 ± 2.55
  b-wave amplitude of electroretinogram: 156.5 ± 34.85
  b-wave latent period of electroretinogram: 70.28 ± 6.02
  Number of Eyes with extinguished electroretinogram: 0
MNU 30 mg/kg, 10 d
  a-wave amplitude of electroretinogram: 44.17 ± 11.13
  a-wave latent period of electroretinogram: 17.30 ± 2.24
  b-wave amplitude of electroretinogram: 188.7 ± 27.7
  b-wave latent period of electroretinogram: 70.31 ± 7.29
  Number of Eyes with extinguished electroretinogram: 0
MNU 35 mg/kg, 12 h
  a-wave amplitude of electroretinogram: 40.34 ± 8.37
  a-wave latent period of electroretinogram: 17.32 ± 5.87
  b-wave amplitude of electroretinogram: 185.3 ± 23.41
  b-wave latent period of electroretinogram: 73.61 ± 6.37
  Number of Eyes with extinguished electroretinogram: 0
MNU 35 mg/kg, 1 d
  a-wave amplitude of electroretinogram: 33.20 ± 12.11
  a-wave latent period of electroretinogram: 16.98 ± 2.46
  b-wave amplitude of electroretinogram: 107.52 ± 17.38
  b-wave latent period of electroretinogram: 73.12 ± 6.69
  Number of Eyes with extinguished electroretinogram: 0
MNU 35 mg/kg, 3 d
  a-wave amplitude of electroretinogram: 30.38 ± 9.61
  a-wave latent period of electroretinogram: 16.83 ± 2.62
  b-wave amplitude of electroretinogram: 104.88 ± 21.83
  b-wave latent period of electroretinogram: 68.15 ± 6.68
  Number of Eyes with extinguished electroretinogram: 0
MNU 35 mg/kg, 7 d
  a-wave amplitude of electroretinogram: 36.75 ± 7.28
  a-wave latent period of electroretinogram: 17.77 ± 2.25
  b-wave amplitude of electroretinogram: 135.44 ± 22.58
  b-wave latent period of electroretinogram: 73.37 ± 7.73
  Number of Eyes with extinguished electroretinogram: 0
MNU 35 mg/kg, 10 d
  a-wave amplitude of electroretinogram: 40.76 ± 8.92
  a-wave latent period of electroretinogram: 17.46 ± 2.41
  b-wave amplitude of electroretinogram: 168.7 ± 32.14
  b-wave latent period of electroretinogram: 73.51 ± 5.61
  Number of Eyes with extinguished electroretinogram: 0
MNU 40 mg/kg, 12 h
  a-wave amplitude of electroretinogram: 17.18 ± 15.90
  a-wave latent period of electroretinogram: 10.53 ± 9.18
  b-wave amplitude of electroretinogram: 54.40 ± 46.33
  b-wave latent period of electroretinogram: 41.09 ± 35.82
  Number of Eyes with extinguished electroretinogram: 4
MNU 40 mg/kg, 1 d
  a-wave amplitude of electroretinogram: 9.44 ± 12.38
  a-wave latent period of electroretinogram: 7.02 ± 9.15
  b-wave amplitude of electroretinogram: 23.09 ± 30.15
  b-wave latent period of electroretinogram: 27.85 ± 36.29
  Number of Eyes with extinguished electroretinogram: 6
MNU 40 mg/kg, 3 d
  a-wave amplitude of electroretinogram: 3.62 ± 7.66
  a-wave latent period of electroretinogram: 3.17 ± 6.69
  b-wave amplitude of electroretinogram: 12.23 ± 26.02
  b-wave latent period of electroretinogram: 12.20 ± 4.24
  Number of Eyes with extinguished electroretinogram: 8
MNU 40 mg/kg, 7 d
  a-wave amplitude of electroretinogram: 4.23 ± 9.27
  a-wave latent period of electroretinogram: 3.37 ± 7.15
  b-wave amplitude of electroretinogram: 13.14 ± 27.85
  b-wave latent period of electroretinogram: 12.33 ± 26.05
